The nature of series [1]: Toxicity in ICR mouse assessed as mouse survival at 800 mg/kg, iv for 14 days relative to control. The class given is organism-based. To be noted: in vivo.
Another series relates to MDA-MB-231. Kind of series: Antiproliferative activity against human MDA-MB-231 cells after 72 hrs by MTT assay. It is filed as functional, cell-based. The settings on record: MDA-MB-231, 72 h. In general terms: Formazan colour is commonly taken as a measure of viable cells.
Series [2] in a line: Selectivity index, ratio of IC50 for human LO2 cells to IC50 for human HepG2 cells. The class given is toxicity. To be noted: LO2 cells and HepG2 cells, read-out: Ratio IC50.
The nature of series [3]: Toxicity in iv dosed ICR mouse assessed as mouse survival for 14 days. The settings on record: in vivo. The class given is organism-based.
The test system of series [4] is K562. The series can be described thus: Induction of apoptosis in human K562 assessed as viable cells at 5 nM after 48 hrs by Annexin V-APC/propidium iodide staining-based flow cytometric analysis (reference value: 92.34%). The class given is functional. The settings on record: K562, 48 h, read-out: Activity. For orientation: In flow cytometry, cells or beads pass a laser one at a time.

Series [5] concerns K562. The series can be described thus: Induction of apoptosis in human K562 assessed as necrotic cells at 10 nM after 48 hrs by Annexin V-APC/propidium iodide staining-based flow cytometric analysis (reference value: 1.92%). The class given is functional.
A further series concerns the target Tubulin (Sus scrofa, UniProt P02554+P02550). Kind of series: Inhibition of porcine brain tubulin polymerization measured every 2 mins for 60 mins by spectrophotometric analysis.
Series [6] deals with K562. Kind of series: Induction of apoptosis in human K562 assessed as viable cells at 10 nM after 48 hrs by Annexin V-APC/propidium iodide staining-based flow cytometric analysis (reference value: 92.34%). The class given is functional. To be noted: K562, 48 h, read-out: Activity.
The subject of series [7] is K562. Kind of series: Induction of apoptosis in human K562 assessed as early apoptotic cells at 10 nM after 48 hrs by Annexin V-APC/propidium iodide staining-based flow cytometric analysis (reference value: 4.44%). The class given is functional.
Series [8] concerns K562. The series can be described thus: Induction of apoptosis in human K562 assessed as late apoptotic cells at 10 nM after 48 hrs by Annexin V-APC/propidium iodide staining-based flow cytometric analysis (reference value: 1.30%). The class given is functional.
For series [9], the system named is K562. The series can be described thus: Cell cycle arrest in human K562 cells assessed as accumulation of cells at G2 phase at 10 nM after 48 hrs by propidium iodide staining-based flow cytometric analysis (reference value: 15.82%). It is filed as functional.
Series [10] concerns K562. The series can be described thus: Induction of mitochondrial membrane potential disruption in human K562 cells assessed as collapsed mitochondrial membrane potential at 10 nM after 48 hrs by JC-1 staining-based flow cytometric analysis (reference value: 0.63%). It is filed as functional.
For series [11], the system named is K562. The series can be described thus: Induction of mitochondrial membrane potential disruption in human K562 cells assessed as intact mitochondrial membrane potential at 20 nM after 48 hrs by JC-1 staining-based flow cytometric analysis (reference value: 99.12%). The class given is functional.

What is called IC50 is the concentration that inhibits the measured activity by half. One may read the LD50 as the dose at which mortality reaches 50%. Turning to `COc1ccc(/C=C(\C)C(=O)c2cc(C)nc3ccccc23)cc1O`, the survival at 336 h in series [1] was 30%. Further, the IC50 is 15 nM in the series on MDA-MB-231 and 1710 nM against Tubulin. Besides, the selectivity ratio in [2] was determined as 65.8. For the same molecule, the LD50 at 336 h in series [3] turned out to be 666 mg/kg. The viability at 0.005 µM in the series with K562 [4] was 80.2%. Further, the Activity in the series with K562 [5] was 2.77%; with K562 [7] it was 23.15%; with K562 [8], 11.4%; in the series with K562 [9], 22.85%; in the series with K562 [10], 26.2%; in the series on K562 [11], 46.39%. In the series with K562 [6], the viability at 0.01 µM came out at 62.7%.

(Values after ChEMBL document CHEMBL4330075, “Discovery of Novel Quinoline-Chalcone Derivatives as Potent Antitumor Agents with Microtubule Polymerization Inhibitory Activity” (J Med Chem, 2019).)
